Measured values taken from patent US9204639B2, “Pesticide preparation and process for producing the same” (BAYER INTELLECTUAL PROPERTY GMBH, priority 2011, dated 2015).
Values after ≈ are worked out from the molar mass of the structure shown. One block for each molecule: values may come before it.

Legend:
[1] = format: physicochemical
Protocol: To 31.0 g of tefuryltrione and 11.5 g of diphenylamine (equivalent mol to tefuryltrione), 10 mL of toluene was added and refluxed under heating at 90° C. for 1 hour. […] The melting point of the obtained compound was measured using a DSC (Differential Scanning calorimetry) and compared with those of the starting materials (Table 1).
The solubilities of the pesticide active ingredients in toluene and a toluene/isooctane mixture liquid (80/20, v/v) at room temperature were determined (Table 2).

[2] = cited from earlier work

Solubility, Toluene [1]: 97.8 g/L (≈ 221 mM)
Solubility, Toluene/isooctane mixture liquid (80/20, v/v) [1]: 49.4 g/L (≈ 112 mM)
SMILES: CS(=O)(=O)c1ccc(C(=O)C2C(=O)CCCC2=O)c(Cl)c1COCC1CCCO1 (stereo not shown) [Tefuryltrione, tefuryltrione]

SMILES: c1ccc(-c2ccccc2)cc1 [biphenyl]
Water solubility [2]: 7 ppm

SMILES: c1ccc(C(c2ccccc2)c2ccccc2)cc1 [triphenylmethane]
Water solubility (in words) [2]: water insoluble
